# Laboratory results reported in patent US11008332B2, “Pharmaceutical composition for preventing or treating aging-related diseases containing decursin derivative as active ingredient” (PRG S&TECH INC., priority 2017, dated 2021).
# “And” between values parts separate entries of the source, which are not always exact repeats. Identical values can stand only once.
# How the values were obtained:
# Plasma protein = Plasma protein binding, human; type: in vitro ADME
# Protocol: In vitro ADME studies (plasma protein binding, CYP inhibition, microsomal stability, plasma stability and hERG inhibition) were performed by New drug development center though standard protocols.
# HGPS cells [1] = conditions: previous report; cited from earlier work
# Lmna^wt/G609G mice = test: Life span and morphology of Lmna^wt/G609G mice; type: in vivo, mouse
# Water solubility = type: physicochemical
# [2] = test system: Lmna^G609G/G609G, progeria model mouse; conditions: intraperitoneal injection (i.p.), previous report; cited from earlier work
# [3] = Chemical pharmacokinetic (PK) analysis, blood/plasma concentration by LC-MS/MS; type: in vivo; conditions: for Plasma concentration, Mean: n = 3
# Protocol: For PK analysis, 5 mg/kg of JH4 in 10% DMSO, 5% Tween […] solution was intravenously injected and 10 mg/kg of JH4 in 10% NMP and 90% PEG400 solution was per orally delivered. At the setting time-points, blood concentration of JH4 was determined by LC-MS/MS analysis and the PK analysis for other chemicals was also tested by the similar protocol.
# hERG ion channel = hERG ion channel (Homo sapiens, UniProt Q12809); test: hERG inhibition (in vitro ADME); conditions: in vitro ADME analysis, FIG. 2B
# Sequence of hERG ion channel (Q12809 whole entry): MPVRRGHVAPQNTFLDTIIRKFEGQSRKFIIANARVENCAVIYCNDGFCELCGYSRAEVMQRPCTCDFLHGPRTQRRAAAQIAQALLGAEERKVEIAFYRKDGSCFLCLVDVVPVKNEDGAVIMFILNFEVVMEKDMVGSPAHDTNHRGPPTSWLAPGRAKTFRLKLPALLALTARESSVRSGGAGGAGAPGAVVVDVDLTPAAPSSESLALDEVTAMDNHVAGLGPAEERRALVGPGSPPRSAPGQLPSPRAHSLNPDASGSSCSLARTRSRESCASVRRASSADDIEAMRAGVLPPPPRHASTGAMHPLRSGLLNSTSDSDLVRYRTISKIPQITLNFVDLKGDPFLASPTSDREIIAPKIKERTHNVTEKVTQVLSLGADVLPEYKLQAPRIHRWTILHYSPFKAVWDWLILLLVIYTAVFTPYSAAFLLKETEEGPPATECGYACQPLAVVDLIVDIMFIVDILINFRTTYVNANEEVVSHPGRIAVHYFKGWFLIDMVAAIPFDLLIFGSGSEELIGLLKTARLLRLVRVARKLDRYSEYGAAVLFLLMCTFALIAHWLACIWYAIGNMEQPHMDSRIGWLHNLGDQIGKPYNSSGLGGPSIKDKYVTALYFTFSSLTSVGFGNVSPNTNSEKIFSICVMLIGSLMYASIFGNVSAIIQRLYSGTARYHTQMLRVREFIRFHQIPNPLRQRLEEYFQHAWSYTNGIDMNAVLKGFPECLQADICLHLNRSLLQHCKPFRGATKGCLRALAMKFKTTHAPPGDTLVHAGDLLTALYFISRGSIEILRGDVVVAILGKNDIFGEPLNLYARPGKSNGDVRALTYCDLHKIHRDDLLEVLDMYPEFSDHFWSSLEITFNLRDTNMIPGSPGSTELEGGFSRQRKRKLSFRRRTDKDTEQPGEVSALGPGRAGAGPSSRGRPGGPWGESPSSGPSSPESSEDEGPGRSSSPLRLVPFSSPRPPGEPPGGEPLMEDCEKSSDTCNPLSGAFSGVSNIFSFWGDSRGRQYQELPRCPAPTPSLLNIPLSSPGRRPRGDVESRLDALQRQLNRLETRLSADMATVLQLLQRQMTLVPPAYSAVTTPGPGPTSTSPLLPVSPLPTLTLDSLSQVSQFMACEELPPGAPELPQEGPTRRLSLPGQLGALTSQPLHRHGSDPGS
# [4] = test system: progerin expression in progerin-transfected 293 cells; test: Progerin expression analysis in progerin-transfected 293 cells (Western blot); type: cell-based; conditions: 24 hours, FIG. 1D
# Protocol: HEK293 cell line, obtained from ATCC, were maintained in liquid medium (DMEM) containing 10% FBS and 1% antibiotics at 37° C.
# Whole-cell lysates were prepared in RIPA.
# 15 μg of cell extracts were separated by SDS-PAGE and transferred onto a PVDF membrane.
# The membrane was incubated for 1 h to overnight at 4° C. with primary antibody, followed by reaction with a secondary antibody at room temperature for 1 h.
# Peroxidase activity was detected by chemiluminescence with ECL kit (Intron, Seoul, Korea) as recommended by its manufacturer.
# HGPS cells [5] = test: Immunofluorescence staining of HGPS cells (nuclear morphology, progerin, H3K9me3); type: cell-based, Human
# Protocol: Human fibroblast cells from HGPS patients (AG03198, person; AG03199; person), WS patients (AG06300, person; AG03141, person; AG00780, person) and controls (GM 00038, person) were obtained from the Coriell Cell Repositories (Camden, N.J., USA) and were maintained in EMEM, containing 15% FBS, 2 mM glutamine or HEMEM with 26 mM HEPES without antibiotics.
# Cells were seeded on a cover glass and transfected with the indicated vectors.
# After fixing with 100% methanol or 1% paraformaldehyde (PFA) for 1 h at 4° C., cells were incubated with blocking buffer (PBS+anti-human-Ab; 1:400) for 1 h.
# After washing with PBS twice, cells were incubated with anti-Lamin A/C, Progerin or H3K9Me3 in blocking buffer (1:200) overnight and sequentially with anti-goat Ab-FITC or anti-rabbit Ab-rhodamin in blocking buffer (1:500) for 7 h and mounted, and nucleus was stained with DAPI. Thereafter Immunofluorescence signal was detected by fluorescence microscopy (Zeiss and Logos).
# For counting nuclear deformed cell, obtained immunofluorescence images were used. Nuclear membrane showing abnormalities, dependent on Lamin A staining, were counted from randomly selected field. Counted cells were calculated percentage.
# progerin = target: T1, progerin (Homo sapiens, UniProt P02545); test: GST pull-down of bead-conjugated GST WRN-R1/WRN-R2 with GFP-progerin transfected 293 cell lysates; type: binding; conditions: compared with WRN-R1, FIG. 4B
# T1 construct: expressed in transfected cells; host or cells: HEK293
# T1 sequence (P02545 1-614 isoform P02545-6): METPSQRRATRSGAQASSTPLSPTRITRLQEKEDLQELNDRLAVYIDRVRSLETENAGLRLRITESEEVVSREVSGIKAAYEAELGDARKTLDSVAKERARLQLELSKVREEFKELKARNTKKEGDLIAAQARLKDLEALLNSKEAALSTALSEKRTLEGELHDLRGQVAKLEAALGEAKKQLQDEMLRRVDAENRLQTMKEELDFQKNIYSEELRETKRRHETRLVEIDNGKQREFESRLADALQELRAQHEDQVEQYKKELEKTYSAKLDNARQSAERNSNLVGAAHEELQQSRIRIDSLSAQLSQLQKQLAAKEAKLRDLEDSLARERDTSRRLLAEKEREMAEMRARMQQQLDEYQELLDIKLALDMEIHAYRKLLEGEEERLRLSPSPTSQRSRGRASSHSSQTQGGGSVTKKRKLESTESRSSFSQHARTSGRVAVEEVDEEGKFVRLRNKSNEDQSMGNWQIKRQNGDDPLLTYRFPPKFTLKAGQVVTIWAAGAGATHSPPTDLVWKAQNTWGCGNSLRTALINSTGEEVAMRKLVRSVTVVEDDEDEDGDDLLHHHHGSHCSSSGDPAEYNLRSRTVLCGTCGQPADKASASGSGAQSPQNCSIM
# Protocol: For the analysis of protein-protein interaction, Glutathione S-transferase (GST) pull-down assay was performed.
# To detect the interaction, GST-bead-fused Lamin A-C-terminal region, Progerin-C-terminal region, WRN-R1 region or WRN-R2 region was incubated with GFP tagged Progerin (GFP-Progerin) and Lamin A (GFP-Lamin A) transfected HEK293 cell lysate for 30 min at RT.
# After washing once with PBS, precipitated materials were collected and subjected into SDS-PAGE and western blot with anti-GFP and GST.
# [6] = target: T2, progerin and Lamin A binding (Homo sapiens, UniProt P02545); test: Competition assay of WRN-R1 and R2 against progerin and Lamin A binding; conditions: bead conjugated GST-progerin with GFP-Lamin A transfected 293 lysate, FIG. 4C
# T2 construct: produced by cloning of 100 AA from upstream of the termination codon through PCR; made in house; GFP-Lamin A from transfected 293 cells
# T2 sequence (P02545 1-614 isoform P02545-6): T1 sequence (P02545 1-614 isoform P02545-6)
# Protocol: For the competition assay of WRN-R1 and R2 against progerin and Lamin A binding, bead-conjugated GST-progerin was incubated with GFP-Lamin A overexpressed 293 lysate with or without WRN-R1 or R2 recombinant protein.
# [7] = Lmna^wt/G609G mice, injection started from 43 weeks old, FIG. 2E
# [8] = intravenous injection 5 mg/kg, 1 hr
# [9] = intravenous injection 5 mg/kg, 2 hr
# [10] = intravenous injection 5 mg/kg, 8 hr
# [11] = intravenous injection 5 mg/kg, 24 hr
# [12] = oral administration 10 mg/kg, 0.08 hr
# [13] = oral administration 10 mg/kg, 0.25 hr
# [14] = oral administration 10 mg/kg, 0.5 hr
# [15] = oral administration 10 mg/kg, 1 hr
# [16] = oral administration 10 mg/kg, 2 hr
# [17] = oral administration 10 mg/kg, 4 hr
# [18] = oral administration 10 mg/kg, 8 hr
# [19] = oral administration 10 mg/kg, 24 hr
# [20] = recombinant peptide delivered into HGPS cells with protein delivery agent, 24 hr, FIG. 4D
molecule,measurement,setting,value
C[C@@H]1C[C@H]2[C@@H]3CCC4=CC(=O)C=C[C@]4(C)[C@@]3(F)[C@@H](O)C[C@]2(C)[C@@]1(O)C(=O)CO [Dexamethasone],Plasma protein binding Human (% Bound),Plasma protein,62.1 % Bound
CC1(C)Oc2cc3oc(=O)ccc3cc2C[C@@H]1OC(=O)/C=C/c1cccnc1 [JH4],aging-related markers in HGPS cells,HGPS cells [1],"restored aging-related markers such as p16/INK4A, DNA-PK and H3K9me3 expression"
same,nuclear deformation of HGPS cells,HGPS cells [1],improved the nuclear deformation of HGPS cells
same,prolongation of life,Lmna^wt/G609G mice; Lamn^wt/G609G model,about 10 weeks
same,average life span,Lmna^wt/G609G mice; [7],54 weeks
same,maximum (max) life span,Lmna^wt/G609G mice; [7],56 weeks
same,water solubility,Water solubility,very low water solubility
same,prolongation of progerin model mouse lifespan,[2],about 4 weeks
same,disappearance after PO treatment,"[3]; PO treatment, FIG. 1A",very rapidly disappeared by PO treatment
same,"Plasma concentration, Mean","[3]; intravenous injection 5 mg/kg, 0.08 hr",4.7 ng/mL
same,"Plasma concentration, individual subjects","[3]; intravenous injection 5 mg/kg, 0.08 hr, 5 mg/kg",3.3 ng/mL and 4.6 ng/mL and 6.3 ng/mL
same,"Plasma concentration, Mean","[3]; intravenous injection 5 mg/kg, 0.25 hr",1.5 ng/mL
same,"Plasma concentration, individual subjects","[3]; intravenous injection 5 mg/kg, 0.25 hr, 5 mg/kg",1.7 ng/mL and 1.1 ng/mL and 1.8 ng/mL
same,"Plasma concentration, Mean","[3]; intravenous injection 5 mg/kg, 0.5 hr",0.6 ng/mL
same,"Plasma concentration, individual subjects","[3]; intravenous injection 5 mg/kg, 0.5 hr, 5 mg/kg",0.5 ng/ml (2×) and 0.7 ng/ml
same,"Plasma concentration, individual subjects",[3]; [8],BQL (Below Quantifiable Limit (<1 ng/ml))
same,"Plasma concentration, Mean",[3]; [8],BQL (Below Quantifiable Limit (<1 ng/ml))
same,"Plasma concentration, individual subjects",[3]; [9],BQL (Below Quantifiable Limit (<1 ng/ml))
same,"Plasma concentration, Mean",[3]; [9],BQL (Below Quantifiable Limit (<1 ng/ml))
same,"Plasma concentration, Mean","[3]; intravenous injection 5 mg/kg, 4 hr",BQL (Below Quantifiable Limit (<1 ng/ml))
same,"Plasma concentration, individual subjects","[3]; intravenous injection 5 mg/kg, 4 hr, 5 mg/kg",BQL (Below Quantifiable Limit (<1 ng/ml)) (2×) and BOL
same,"Plasma concentration, individual subjects",[3]; [10],BQL (Below Quantifiable Limit (<1 ng/ml))
same,"Plasma concentration, Mean",[3]; [10],BQL (Below Quantifiable Limit (<1 ng/ml))
same,"Plasma concentration, individual subjects",[3]; [11],BQL (Below Quantifiable Limit (<1 ng/ml))
same,"Plasma concentration, Mean",[3]; [11],BQL (Below Quantifiable Limit (<1 ng/ml))
same,half-life in vivo,[3]; intravenously injected and orally administrated,very short half-life
same,"Plasma concentration, individual subjects",[3]; [12],BQL (Below Quantifiable Limit (<1 ng/ml))
same,"Plasma concentration, Mean",[3]; [12],BQL (Below Quantifiable Limit (<1 ng/ml))
same,"Plasma concentration, individual subjects",[3]; [13],BQL (Below Quantifiable Limit (<1 ng/ml))
same,"Plasma concentration, Mean",[3]; [13],BQL (Below Quantifiable Limit (<1 ng/ml))
same,"Plasma concentration, individual subjects",[3]; [14],BQL (Below Quantifiable Limit (<1 ng/ml))
same,"Plasma concentration, Mean",[3]; [14],BQL (Below Quantifiable Limit (<1 ng/ml))
same,"Plasma concentration, individual subjects",[3]; [15],BQL (Below Quantifiable Limit (<1 ng/ml))
same,"Plasma concentration, Mean",[3]; [15],BQL (Below Quantifiable Limit (<1 ng/ml))
same,"Plasma concentration, individual subjects",[3]; [16],BQL (Below Quantifiable Limit (<1 ng/ml))
same,"Plasma concentration, Mean",[3]; [16],BQL (Below Quantifiable Limit (<1 ng/ml))
same,"Plasma concentration, individual subjects",[3]; [17],BQL (Below Quantifiable Limit (<1 ng/ml))
same,"Plasma concentration, Mean",[3]; [17],BQL (Below Quantifiable Limit (<1 ng/ml))
same,"Plasma concentration, individual subjects",[3]; [18],BQL (Below Quantifiable Limit (<1 ng/ml))
same,"Plasma concentration, Mean",[3]; [18],BQL (Below Quantifiable Limit (<1 ng/ml))
same,"Plasma concentration, individual subjects",[3]; [19],BQL (Below Quantifiable Limit (<1 ng/ml))
same,"Plasma concentration, Mean",[3]; [19],BQL (Below Quantifiable Limit (<1 ng/ml))
CC1(C)Oc2cc3oc(=O)ccc3cc2CC1OC(=O)N/C=C/c1cccnc1 (stereo not shown) [JH010],hERG ion channel inhibition,hERG ion channel,hERG ion channel inhibition of the JH010 compound was confirmed
same,progerin expression,[4],inhibiting progerin expression
same,nuclear abnormality of HGPS cells,"HGPS cells [5]; HGPS cells incubated 48 hr, FIG. 1E",improved nuclear abnormality of HGPS cells
same,H3K9me3 expression in HGPS cells,"HGPS cells [5]; immunostaining, FIG. 1F",induced H3K9me3 expression
same,bioavailability (B.A.),"[3]; PK analysis, FIG. 2A",70%
same,PK profile,"[3]; in vivo PK analysis, FIG. 2A",proper PK profile
"WRN-R2: recombinant WRN-R2 region (hWRN 424-476), duplicated peptide HLSPNDNENDTSYVIESDEDELEMEMLK x2",binding to progerin,progerin,strongly binds to progerin
same,blocking of interaction of progerin and Lamin A,[6],blocks the interaction of progerin and Lamin A
same,H3K9me3 expression in HGPS cells,HGPS cells [5]; [20],H3K9me3 expression was improved
same,nuclear morphology of HGPS cells,HGPS cells [5]; [20],nuclear morphology was normalized
